± gives the standard deviation of the averaged measurements.
What was measured:
Settings in all cases: 72 h
Caco-2 [1] = experiment: cell viability relative to DMSO; higher = less toxic
Calu-3 [2] = experiment: as above
HepG2 [3] = experiment: as above
U2OS [4] = experiment: as above
Vero E6 [5] = experiment: as above
Caco-2 [6] = experiment: relative viability EC50 (midpoint between 100% and the lowest measured viability); higher = less toxic
Calu-3 [7] = experiment: as above
HepG2 [8] = experiment: as above
U2OS [9] = experiment: as above
Vero E6 [10] = experiment: as above
Caco-2 [11] = experiment: drug sensitivity score (DSS) for viability; higher = more toxic; extreme values may be limits of the assay
Calu-3 [12] = experiment: as above
HepG2 [13] = experiment: as above
U2OS [14] = experiment: as above
Vero E6 [15] = experiment: as above

SMILES	cell viability (Caco-2 [1]; 1 nM) [%]	cell viability (Caco-2 [1]; 10 nM) [%]	cell viability (Caco-2 [1]; 100 nM) [%]	cell viability (Caco-2 [1]; 1000 nM) [%]	cell viability (Caco-2 [1]; 10000 nM) [%]	cell viability (Calu-3 [2]; 1 nM) [%]	cell viability (Calu-3 [2]; 10 nM) [%]	cell viability (Calu-3 [2]; 100 nM) [%]	cell viability (Calu-3 [2]; 1000 nM) [%]	cell viability (Calu-3 [2]; 10000 nM) [%]	cell viability (HepG2 [3]; 1 nM) [%]	cell viability (HepG2 [3]; 10 nM) [%]	cell viability (HepG2 [3]; 100 nM) [%]	cell viability (HepG2 [3]; 1000 nM) [%]	cell viability (HepG2 [3]; 10000 nM) [%]	cell viability (U2OS [4]; 1 nM) [%]	cell viability (U2OS [4]; 10 nM) [%]	cell viability (U2OS [4]; 100 nM) [%]	cell viability (U2OS [4]; 1000 nM) [%]	cell viability (U2OS [4]; 10000 nM) [%]	cell viability (Vero E6 [5]; 1 nM) [%]	cell viability (Vero E6 [5]; 10 nM) [%]	cell viability (Vero E6 [5]; 100 nM) [%]	cell viability (Vero E6 [5]; 1000 nM) [%]	cell viability (Vero E6 [5]; 10000 nM) [%]	relative viability EC50 (Caco-2 [6]) [µM]	relative viability EC50 (Calu-3 [7]) [µM]	relative viability EC50 (HepG2 [8]) [µM]	relative viability EC50 (U2OS [9]) [µM]	relative viability EC50 (Vero E6 [10]) [µM]	drug sensitivity score (Caco-2 [11])	drug sensitivity score (Calu-3 [12])	drug sensitivity score (HepG2 [13])	drug sensitivity score (U2OS [14])	drug sensitivity score (Vero E6 [15])
CNC(=O)O[C@H]1COc2ccc(N3CCN(C4COC4)CC3)cc2[C@@H]1NC(=O)c1ccc(F)cc1	90.5	103	89.9	101	98.5	106	88.4	92.1	95.4	101	94.9	101	94.4	105	91.8	96.6	101	95.7	104	102	101	98.2	106	104	94.1	> 10	> 10	> 10	> 10	> 10	0	0	0	0	0
Cc1cc(N2CCOCC2)cc2[nH]c(-c3c(NC[C@@H](O)c4cccc(Cl)c4)cc[nH]c3=O)nc12	102	93.9	99.4	76.8	43	89.8	102	96.7	81.9	38.3	101	101	80.2	58.8	31.2	97.2	97.2	95.9	78	22.5	89.3	101	90.6	90.2	49.9	1.16	1.44	0.45	1.45	1.75	6.2	6	10.1	7.6	4.3
Cc1cccc(NC(=O)c2ccc(C(F)(F)F)cc2C(=O)O)n1	99.5	101	101	98	105	103	95	94.5	106	98.6	103	96.8	105	108	102	100	102	97	97	104	99.7	99.8	105	104	106	> 10	> 10	> 10	> 10	> 10	0	0	0	0	0
N#Cc1cccc(-c2c[nH]c3ncnc(N4CCOCC4)c23)c1	104	98.2	105	107	118	99	104	103	99.6	115	89.8	99.8	102	105	106	106	99.2	102	98.5	105	98.1	96	98.9	97.7	95.9	> 10	> 10	> 10	> 10	> 10	0	0	0	0	0
CCOc1ccc(-n2c([C@@H](C)N(Cc3cccnc3)C(=O)Cc3ccc(F)c(C(F)(F)F)c3)nc3ncccc3c2=O)cc1 (racemic)	103	97.6	99.3	99.9	90	93.8	91	92.8	95.2	88.4	105	100	97.9	108	93.7	104	96	96.2	99.2	95.9	96	97.2	98.6	103	105	> 10	> 10	> 10	> 10	> 10	0	0	0	0	0
O=C1CC2(CCCC2)CC(=O)N1CCCCNC[C@H]1COc2ccccc2O1 (racemic)	97.8	98.2	93.8	98.3	86	96.9	103	96.9	94.2	85.3	99	112	106	101	110	104	102	101	104	97.8	103	101	101	97	98.6	> 10	> 10	> 10	> 10	> 10	0.3	0.3	0	0	0
CCOc1ccc(-n2c([C@@H](C)N(Cc3cccnc3)C(=O)Cc3ccc(OC(F)(F)F)cc3)nc3ncccc3c2=O)cc1 (racemic) [AMG-487-(+/-)]	94 ± 2.5	98.2 ± 13	98.5 ± 2	101 ± 6	94.5 ± 8.4	100.8 ± 0.57	99.7 ± 0.99	93.3 ± 2.7	92.1 ± 3.4	98.5 ± 6	99.7 ± 1.1	98 ± 11	97.5 ± 8.5	95.2 ± 4.5	94 ± 13	100.5 ± 0.35	101 ± 4	97.3 ± 1.7	98.6 ± 0.85	99.6 ± 1.7	97.8 ± 3.2	102 ± 3.9	101 ± 2.5	97.8 ± 0.57	102 ± 2.5	> 10	> 10	> 10	> 10	> 10	0	0.05 ± 0.071	0.45 ± 0.64	0	0
O=c1[nH]c(=O)n([C@H]2CCCO2)cc1F (racemic) [ftorafur]	93.5	103	106	90.7	100	96.5	95.2	93.9	94.4	99.2	87.2	111	91.5	110	113	99	95.9	102	98.1	105	96.1	103	91.2	102	108	> 10	> 10	> 10	> 10	> 10	0	0	0	0	0
CC1(C)[C@@H]2C[C@@H](O)[C@@](C)(O)[C@H]1C2 [2,3-cis/exo-pinanediol]	103	101	97.2	108	87.2	106	98.1	102	106	103	100	110	104	93.9	108	96.1	97.3	95.7	100	97.3	100	99.9	99.3	93.1	100	> 10	> 10	> 10	> 10	> 10	0	0	0	0	0
Nc1ccccc1S(N)(=O)=O [2-aminobenzenesulfonamide]	95.3	99.4	99.4	95.5	101	90.9	108	101	104	80.5	99	99.5	87.1	94.1	102	103	105	96.8	98.4	90.5	99.5	98.2	101	98.9	93.7	> 10	> 10	> 10	> 10	> 10	0	0.4	0	0	0
NC(=O)c1cccc(N)c1 [3-amino-benzamide]	98.4	96.2	93.3	89	96.8	106	111	102	103	97.2	104	81.8	107	101	99.8	99.8	106	98.3	104	98.9	95.7	102	102	102	103	> 10	> 10	> 10	> 10	> 10	0	0	0	0	0
C[C@@H](CN)CC(=O)O [3-methyl-GABA]	85.9	94.9	84.6	101	88.8	95.5	104	93.4	98.3	90.9	96.1	90.5	100	92.4	99	102	101	99.3	103	94.5	100	94.2	103	92.8	101	> 10	> 10	> 10	> 10	> 10	0.1	0	0	0	0
O=C(O)C(Cc1ccccc1[N+](=O)[O-])=NNc1nc(-c2ccc(Cl)c(Cl)c2)cs1 [4EGI-1]	87.1	103	98.1	112	84.8	98.1	100	97.7	104	96.7	101	104	102	91.6	45.5	94.5	96.7	93.8	93.7	93.1	97.9	95.3	96.7	92	100	> 10	> 10	1.96	> 10	> 10	0.1	0	4.3	0	0
O=[N+]([O-])c1cccc2cn[nH]c12 [7-nitroindazole]	100	94.4	97.1	106	97.8	102	101	99.4	97.6	93.4	102	96.3	88.2	99.2	98.1	99.7	102	99.8	104	97.9	103	96.5	99.6	98.7	98.7	> 10	> 10	> 10	> 10	> 10	0	0	0	0	0

Reference: the supplement of paper PMC13380429
